Literature values, collected in US20160143918A1, “DRUG RELEASING AGENT BASED ON beta-SITOSTEROL AND A PREPARATION METHOD THEREOF” (School of Medicine Jiaying University, priority 2014, published 2016).

In the case of `CC[C@H](CC[C@@H](C)[C@H]1CC[C@H]2[C@@H]3CC=C4C[C@@H](O)CC[C@]4(C)[C@H]3CC[C@]12C)C(C)C` [β-sitosterol], the “solubility in organic solvents” value (organic solvents) is listed as “soluble in organic solvents” and the solubility in water (water) is listed as “insoluble in water”.
